# Test results: patent US8895753B2, “S1P receptor modulating agent” (Meiji Seika Pharma Co., Ltd., priority 2011, dated 2014)
# Several values for one entry are separate records, joined by “and”; a condition that tells them apart may be missing. Identical values can stand only once.
# How the values were obtained:
# Human S1P1 receptor [1] = target: T1, Human S1P1 receptor (Homo sapiens, UniProt P21453); assay: Agonist activity at an S1P1 receptor (reporter assay, EDG1-bla/U2OS cells); assay type: cell-based; set-up: host or cells: U2OS (EDG1-bla/U2OS); details: S1P maximum response = 100%
# Protocol: Human S1P1 receptor gene recombinant EDG1-bla/U2OS cells (Life Technologies Japan Ltd.) were plated in a 96-well half-sized clear bottom black plate at a density of 10000 cells/32 μL/well, and then the plate was incubated at 37° C. in a 5% CO2 incubator for 48 hours. A culture medium containing each test compound prepared as a 5× concentrate was added at 8 μL/well, and the plate was incubated at 37° C. in a 5% CO2 incubator for 5 hours. The substrate (LiveBLAzer™-FRET B/G substrate (CCF4-AM), Life Technologies Japan Ltd.) prepared as a 6× concentrate was added at 8 μL into each well, and the plate was incubated at room temperature for 2 hours in the dark. The fluorescence intensity of each well was detected using a bottom-reading fluorescence microplate reader (EnVision: ParkinElmer) at one excitation wavelength and 2 wavelengths for fluorescence emission (Ex409 nm, Em460 nm, Em530 nm). The intensity ratio of fluorescence at 460 nm/530 nm was calculated for each well. The maximum response ratio confirmed from the dose response of SIP was expressed as 100%. The concentration of a test compound required to stimulate 50% of its maximal activation was computed as EC50 (nM).
# Human S1P4 receptor = target: T2, Human S1P4 receptor (Homo sapiens, UniProt O95977); assay: Agonist activity at an S1P4 receptor (calcium influx); assay type: cell-based; details: at 1000 nM; read-out: activity at S1P4 receptor (elevation of intracellular calcium)
# T2 sequence (O95977 1-384): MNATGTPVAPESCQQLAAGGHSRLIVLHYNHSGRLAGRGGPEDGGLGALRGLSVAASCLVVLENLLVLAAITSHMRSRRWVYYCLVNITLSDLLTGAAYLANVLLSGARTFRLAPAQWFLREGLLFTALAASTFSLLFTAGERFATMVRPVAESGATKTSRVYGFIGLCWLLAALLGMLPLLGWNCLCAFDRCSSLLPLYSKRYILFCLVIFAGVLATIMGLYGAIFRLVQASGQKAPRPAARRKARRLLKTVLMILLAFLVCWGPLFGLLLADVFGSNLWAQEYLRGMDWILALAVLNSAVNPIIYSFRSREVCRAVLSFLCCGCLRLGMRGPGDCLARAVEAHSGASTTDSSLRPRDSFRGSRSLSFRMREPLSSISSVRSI
# Protocol: By using Human S1P4 receptor expressing cells (Multispan Inc. CG1052-1), the elevation of intracellular calcium concentration via agonist activity by the addition of 1000 nM was measured by Fret method (fluorescence resonance energy transfer).
# Human S1P1 receptor [2] = target: T1, Human S1P1 receptor; assay: Agonist activity at an S1P1 receptor ([35S]-GTPγS exchange reaction, membrane fractions); assay type: biochemical; details: read-out: EC50, agonist activity at S1P1 receptor (GTP exchange reaction)
# Protocol: (§1) By using membrane fractions prepared from a human S1P1 receptor expressing cells (Multispan Ltd.), the agonist activity of each test compound was measured by [^35S]-GTPγS exchange reaction in accordance with a standard procedure (Methods in Molecular Biology, Vol. 552, p 143-151 (2009)), and EC50 (nM) of each test compound was computed.
# Human S1P3 receptor = Human S1P3 receptor (Homo sapiens, UniProt Q99500); assay: Agonist activity at an S1P3 receptor ([35S]-GTPγS exchange reaction at 1000 nM); assay type: biochemical; details: read-out: percent of the maximal agonist activity at S1P3 receptor
# Protocol: as §1
# By using membrane fractions prepared from Human S1P3 receptor expressing cells (Multispan Inc.), the agonist activity of the compound in the present invention was measured by a [^35S]-GTPγS exchange reaction at 1000 nM by the similar method of the Experimental Example 2.
# T1 sequence (P21453 whole entry): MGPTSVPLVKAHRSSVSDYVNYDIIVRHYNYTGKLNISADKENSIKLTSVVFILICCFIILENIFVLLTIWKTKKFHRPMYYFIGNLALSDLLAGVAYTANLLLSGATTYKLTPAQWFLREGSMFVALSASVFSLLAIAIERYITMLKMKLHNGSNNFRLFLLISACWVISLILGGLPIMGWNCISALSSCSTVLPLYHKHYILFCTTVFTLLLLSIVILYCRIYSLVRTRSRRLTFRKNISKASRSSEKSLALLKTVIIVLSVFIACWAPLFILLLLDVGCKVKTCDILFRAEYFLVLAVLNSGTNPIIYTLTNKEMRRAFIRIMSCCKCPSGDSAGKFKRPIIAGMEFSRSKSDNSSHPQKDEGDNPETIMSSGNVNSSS
# Sequence of Human S1P3 receptor (Q99500 whole entry): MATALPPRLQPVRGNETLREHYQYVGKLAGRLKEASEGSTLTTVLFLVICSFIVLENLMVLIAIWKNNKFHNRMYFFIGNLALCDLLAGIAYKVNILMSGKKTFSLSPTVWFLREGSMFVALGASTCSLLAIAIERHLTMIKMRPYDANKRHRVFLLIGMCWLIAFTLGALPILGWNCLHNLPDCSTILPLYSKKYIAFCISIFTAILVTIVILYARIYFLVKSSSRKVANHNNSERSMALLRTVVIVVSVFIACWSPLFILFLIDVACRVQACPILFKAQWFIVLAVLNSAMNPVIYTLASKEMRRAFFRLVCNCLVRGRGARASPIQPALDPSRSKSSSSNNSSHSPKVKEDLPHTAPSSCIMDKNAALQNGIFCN
structure (smiles),measurement,setting,value
"CC(C)Oc1ccc(-c2cnc(-c3ccc(CN4CC(c5nn[nH]n5)C4)cc3)s2)cc1 [Example 4, 2-(4-((3-(2H-tetrazol-5-yl)azetidin-1-yl)methyl)phenyl)-5-(4-isopropoxyphenyl)thiazole]",EC50,Human S1P1 receptor [1],≤ 100 nM and 87.1 nM
"CC(C)Oc1ccc(-c2cnc(-c3ccc(CN4CCC(C(=O)O)CC4)cc3)s2)cc1 [Example 5, 1-(4-(5-(4-isopropoxyphenyl)thiazol-2-yl)benzyl)piperidine-4-carboxylic acid]",EC50,Human S1P1 receptor [1],≤ 500 nM
"CC(C)Oc1cccc(-c2cnc(-c3ccc(CN4CC(C(=O)O)C4)cc3)s2)c1 [Example 7, 1-(4-(5-(3-isopropoxyphenyl)thiazol-2-yl)benzyl)azetidine-3-carboxylic acid]",EC50,Human S1P1 receptor [1],≤ 100 nM and 72.6 nM
"CC(C)Oc1ccc(-c2cnc(-c3ccc(C(C)N4CC(C(=O)O)C4)cc3)s2)cc1 (stereo not shown) [Example 8, 1-(1-(4-(5-(4-isopropoxyphenyl)thiazol-2-yl)phenyl)ethyl)azetidine-3-carboxylic acid]",EC50,Human S1P1 receptor [1],≤ 10 nM and 6.58 nM
same,activation at 1 µM,Human S1P4 receptor,< 20%
same,EC50,Human S1P1 receptor [2],≤ 100 nM
"CC(C)Oc1ccc(-c2cnc(-c3ccc(CN4CC(C(=O)O)C4)cc3F)s2)cc1Cl [Example 11, 1-(4-(5-(3-chloro-4-isopropoxyphenyl)thiazol-2-yl)-3-fluorobenzyl)azetidine-3-carboxylic acid]",Emax at 1 µM,Human S1P3 receptor,20 to 50%
same,EC50,Human S1P1 receptor [1],≤ 1 nM and 0.076 nM
same,activation at 1 µM,Human S1P4 receptor,< 20%
same,EC50,Human S1P1 receptor [2],≤ 10 nM
"CC(C)Oc1ccc(-c2cnc(-c3ccc(CN4CC(C(=O)O)C4)cc3Cl)s2)cc1 [Example 12, 1-(3-chloro-4-(5-(4-isopropoxyphenyl)thiazol-2-yl)benzyl)azetidine-3-carboxylic acid]",Emax at 1 µM,Human S1P3 receptor,20 to 50%
same,EC50,Human S1P1 receptor [1],≤ 10 nM
same,activation at 1 µM,Human S1P4 receptor,< 20%
same,EC50,Human S1P1 receptor [2],≤ 50 nM
"CCCCc1cc(CN2CC(C(=O)O)C2)ccc1-c1ncc(-c2ccc(OC(C)C)cc2)s1 [Example 13, 1-(3-butyl-4-(5-(4-isopropoxyphenyl)thiazol-2-yl)benzyl)azetidine-3-carboxylic acid]",EC50,Human S1P1 receptor [1],≤ 100 nM
"CC(C)Oc1ccc(-c2cnc(-c3ccc(CN4CC(C(=O)O)C4)cc3C3CC3)s2)cc1 [Example 14, 1-(3-cyclopropyl-4-(5-(4-isopropoxyphenyl)thiazol-2-yl)benzyl)azetidine-3-carboxylic acid]",EC50,Human S1P1 receptor [1],≤ 10 nM
"CCc1cc(CN2CC(C(=O)O)C2)ccc1-c1ncc(-c2ccc(OC(C)C)cc2)s1 [Example 15, 1-(3-ethyl-4-(5-(4-isopropoxyphenyl)thiazol-2-yl)benzyl)azetidine-3-carboxylic acid]",Emax at 1 µM,Human S1P3 receptor,< 20%
same,EC50,Human S1P1 receptor [1],≤ 10 nM
same,activation at 1 µM,Human S1P4 receptor,< 20%
"O=C(O)C1CN(Cc2ccc(-c3ncc(-c4ccc(OC5CC5)cc4)s3)cc2)C1 [Example 16, 1-(4-(5-(4-cyclopropoxyphenyl)thiazol-2-yl)benzyl)azetidine-3-carboxylic acid]",EC50,Human S1P1 receptor [1],≤ 100 nM
"CC(C)Oc1ccc(-c2cnc(-c3ccc(CN4CC(C(=O)O)C4)cc3F)s2)cc1 [Example 17, 1-(3-fluoro-4-(5-(4-isopropoxyphenyl)thiazol-2-yl)benzyl)azetidine-3-carboxylic acid]",EC50,Human S1P1 receptor [1],≤ 10 nM
same,activation at 1 µM,Human S1P4 receptor,< 20%
same,EC50,Human S1P1 receptor [2],≤ 50 nM
"COc1cc(CN2CC(C(=O)O)C2)ccc1-c1ncc(-c2ccc(OC(C)C)cc2)s1 [Example 18, 1-(4-(5-(4-isopropoxyphenyl)thiazol-2-yl)-3-methoxybenzyl)azetidine-3-carboxylic acid]",EC50,Human S1P1 receptor [1],≤ 500 nM
"CCc1cc(-c2ncc(-c3ccc(OC(C)C)cc3)s2)ccc1CN1CC(C(=O)O)C1 [Example 20, 1-(2-ethyl-4-(5-(4-isopropoxyphenyl)thiazol-2-yl)benzyl)azetidine-3-carboxylic acid]",EC50,Human S1P1 receptor [1],≤ 100 nM
"Cc1cc(CN2CC(C(=O)O)C2)ccc1-c1ncc(-c2ccc(OC(C)C)cc2)s1 [Example 21, 1-(4-(5-(4-isopropoxyphenyl)thiazol-2-yl)-3-methylbenzyl)azetidine-3-carboxylic acid]",Emax at 1 µM,Human S1P3 receptor,20 to 50%
same,EC50,Human S1P1 receptor [1],≤ 10 nM
same,activation at 1 µM,Human S1P4 receptor,< 20%
same,EC50,Human S1P1 receptor [2],≤ 50 nM
"CC(C)Oc1ccc(-c2cnc(-c3ccc(CN4CC(C(=O)O)C4)c(F)c3)s2)cc1 [Example 22, 1-(2-fluoro-4-(5-(4-isopropoxyphenyl)thiazol-2-yl)benzyl)azetidine-3-carboxylic acid]",Emax at 1 µM,Human S1P3 receptor,< 20%
same,EC50,Human S1P1 receptor [1],≤ 10 nM
same,activation at 1 µM,Human S1P4 receptor,< 20%
same,EC50,Human S1P1 receptor [2],≤ 10 nM
"CC(C)Oc1ccc(-c2cnc(-c3ccc(CN4CC(C(=O)O)C4)c(Cl)c3)s2)cc1 [Example 23, 1-(2-chloro-4-(5-(4-isopropoxyphenyl)thiazol-2-yl)benzyl)azetidine-3-carboxylic acid]",Emax at 1 µM,Human S1P3 receptor,< 20%
same,EC50,Human S1P1 receptor [1],≤ 10 nM
same,activation at 1 µM,Human S1P4 receptor,< 20%
same,EC50,Human S1P1 receptor [2],≤ 50 nM
"CC(C)Oc1ccc(-c2cnc(-c3ccc(CN4CC(C(=O)O)C4)c(C4CC4)c3)s2)cc1 [Example 24, 1-(2-cyclopropyl-4-(5-(4-isopropoxyphenyl)thiazol-2-yl)benzyl)azetidine-3-carboxylic acid]",EC50,Human S1P1 receptor [1],≤ 100 nM
"Cc1cc(-c2ncc(-c3ccc(OC(C)C)cc3)s2)ccc1CN1CC(C(=O)O)C1 [Example 25, 1-(4-(5-(4-isopropoxyphenyl)thiazol-2-yl)-2-methylbenzyl)azetidine-3-carboxylic acid]",EC50,Human S1P1 receptor [1],≤ 10 nM
"COc1cc(-c2ncc(-c3ccc(OC(C)C)cc3)s2)ccc1CN1CC(C(=O)O)C1 [Example 26, 1-(4-(5-(4-isopropoxyphenyl)thiazol-2-yl)-2-methoxybenzyl)azetidine-3-carboxylic acid]",EC50,Human S1P1 receptor [1],≤ 100 nM
"CC(C)Oc1ccc(-c2cnc(-c3ccc(CN4CC(C(=O)O)C4)c(C(F)(F)F)c3)s2)cc1 [Example 27, 1-(4-(5-(4-isopropoxyphenyl)thiazol-2-yl)-2-(trifluoromethyl)benzyl)azetidine-3-carboxylic acid]",EC50,Human S1P1 receptor [1],≤ 100 nM
"CC(C)(C)c1ccc(-c2cnc(-c3ccc(CN4CC(C(=O)O)C4)cc3)s2)cc1 [Example 33, 1-(4-(5-(4-tert-butylphenyl)thiazol-2-yl)benzyl)azetidine-3-carboxylic acid]",EC50,Human S1P1 receptor [1],≤ 100 nM
"CCCCCCc1ccc(-c2cnc(-c3ccc(CN4CC(C(=O)O)C4)cc3)s2)cc1 [Example 35, 1-(4-(5-(4-hexylphenyl)thiazol-2-yl)benzyl)azetidine-3-carboxylic acid]",EC50,Human S1P1 receptor [1],≤ 500 nM
"CCCCOc1ccc(-c2cnc(-c3ccc(CN4CC(C(=O)O)C4)cc3)s2)cc1 [Example 39, 1-(4-(5-(4-butoxyphenyl)thiazol-2-yl)benzyl)azetidine-3-carboxylic acid]",EC50,Human S1P1 receptor [1],≤ 100 nM
"CCCCCOc1ccc(-c2cnc(-c3ccc(CN4CC(C(=O)O)C4)cc3)s2)cc1 [Example 40, 1-(4-(5-(4-pentyloxyphenyl)thiazol-2-yl)benzyl)azetidine-3-carboxylic acid]",EC50,Human S1P1 receptor [1],≤ 500 nM
"O=C(O)C1CN(Cc2ccc(-c3ncc(-c4ccc(OC5CCCC5)cc4)s3)cc2)C1 [Example 41, 1-(4-(5-(4-(cyclopentyloxy)phenyl)thiazol-2-yl)benzyl)azetidine-3-carboxylic acid]",EC50,Human S1P1 receptor [1],≤ 100 nM
"O=C(O)C1CN(Cc2ccc(-c3ncc(-c4ccc(OC5CCCCC5)cc4)s3)cc2)C1 [Example 43, 1-(4-(5-(4-(cyclohexyloxy)phenyl)thiazol-2-yl)benzyl)azetidine-3-carboxylic acid]",EC50,Human S1P1 receptor [1],≤ 100 nM
"CCCCCc1ccc(-c2cnc(-c3ccc(CN4CC(C(=O)O)C4)cc3)s2)cc1 [Example 49, 1-(4-(5-(4-pentylphenyl)thiazol-2-yl)benzyl)azetidine-3-carboxylic acid]",EC50,Human S1P1 receptor [1],≤ 100 nM
"Cc1cc(OC(C)C)ccc1-c1cnc(-c2ccc(CN3CC(C(=O)O)C3)cc2)s1 [Example 54, 1-(4-(5-(4-isopropoxy-2-methylphenyl)thiazol-2-yl)benzyl)azetidine-3-carboxylic acid]",EC50,Human S1P1 receptor [1],≤ 100 nM
